Experimental findings from patent US20160272969A1, “COMPOSITIONS AND METHODS FOR MODULATING AUTOPHAGIC CELL DEATH” (priority 2013, published 2016) are described below.

Where a SMILES comes first, the peptide text is derived from it. [ ]: non-standard residue; d: D form. The star is where a group is joined. Sta = CC(C)C[C@H](N)[C@@H](O)CC(=O)O; Isovaleryl = CC(C)CC(=O)*

Series [1] concerns MCF-7 cells. The series can be described thus: Cell death by trypan blue staining, MCF-7 cells. As to conditions: for TPCK or tamoxifen-induced cell death on addition of autophagy inhibitor: 50 nM bafilomycin A1, 5 mM 3-Methyladenine or combination of 10 m/ml pepstatin with 10 m/ml E64-d. The series is classed as cell-based, human. The procedure: (§1) The human breast cancer MCF-7 cell line was cultured in DMEM (Invitrogen, 41965) supplemented with 10% FBS (Beit Haemek, 04-121-1A), 300 mg/l L-glutamine (Beit Haemek, 03-020-1B), 100 U/ml penicillin, 100 μg/ml streptomycin and 12.5 U/ml nystatin (Beit Haemek, 03-032-1B) and 100 U/ml recombinant human insulin (Beit Haemek, 01-818-1H), at 37° C. in 5% CO2.
(§2) Cells were plated in 24-wells plate or 96-well plates at a concentration of 5·10^4 cells/ml. A day later the cells were treated with different concentrations of tamoxifen or TPCK as indicated below.

The test system of series [2] is MCF-7 cells. The series can be described thus: Labeling of autophagic vacuoles with monodansylcadaverine (MDC), MCF-7 cells. The format is cell-based, human. Conditions: for MDC uptake in cells treated with TPCK: MCF-7 cells treated with TPCK, 3 MA 5 mM or bafilomycin A1 50 nM, 24 hours. The procedure: as §1, §2
(§3) Following treatment, the cells were incubated with 0.05 mM MDC in PBS at 37° C. for 10 minutes (Biederbick et al., Eur J Cell Biol. 1995 January; 66(1):3-14). Intracellular MDC was measured by fluorescence photometry (excitation wavelength 380 nm, emission filter 525 nm) in a TECAN SPECTRA Fluor Plus microplate reader. The MDC fluorescence intensity was correlated to cell density as measured by XTT reduction assay performed in parallel treated samples. The results are expressed as fluorescence/cell.
(§4) For visualization of MDC-labeled vacuoles, cells were grown on coverslips, incubated with 0.05 mM MDC at 37° C. for 10 minutes. After incubation, cells were washed four times with PBS and immediately analyzed by fluorescence microscopy.

For series [3], the system named is MCF-7 cells. Kind of series: Western blot of LC3-II levels, MCF-7 cells. As to conditions: for TPCK-induced accumulation of LC3-II: co-incubation with E64d and pepstatin A together. The format is cell-based, human.
Series [4] has as its system HT-29 cells. The series can be described thus: Western blot of LC3-II levels, HT-29 cells. The format is cell-based, human. Conditions: for TPCK-induced accumulation of LC3-II: co-incubation with E64d and pepstatin A together. Background: In western blotting, separated proteins are transferred to a membrane and probed.
The test system of series [5] is MCF-7 cells. The series can be described thus: Western blot of intracellular AAT level, MCF-7 cells. The format is cell-based, human. Conditions: MCF-7 cell lysates; TPCK 50 μM, tamoxifen 10 μM; 1-3 hr treatment. The procedure: (§5) Normal or treated 10^7 cells were collected, washed twice with ice-cold PBS and resuspended in 0.5 ml ice-cold lysing buffer (50 mM Tris-HCl pH 7.5, 0.1% NP-40, 1 mM DTT, 0.25M sucrose, 2 mM MgCl2). The cells were broken by politron (4 cycles of 7 sec) and the cell debris pelleted by centrifugation in an ultracentrifuge at 120,000×g for 30 min, at 4° C. The supernatant was used immediately or stored at −70° C. Protein content of each sample was determined with BioRad reagent according to Bradford's method using bovine serum albumin (BSA) as standard. Equal amounts of protein samples (40 μg/lane) were subjected to 10% SDS-PAGE before being transferred to polyvinylidene difluoride (PVDF) membranes. The samples were then exposed to the following primary antibodies: goat anti-AAT and goat anti-actin (Santa Cruz Biotechnology, Santa Cruz, Calif.) polyclonal antibody. The secondary antibody was an HRP-conjugated anti-goat IgG (Jackson ImmunoResearch, USA). The membranes were blocked with 5% skin milk/Tris-buffered saline containing 0.1% Tween-20 (TBST) at room temperature for 1 h, after which the samples were incubated overnight at 4° C. with each of the above primary antibodies. The membranes were then washed three times with TBST, followed by 1 h incubation at room temperature with the secondary antibody. […]

Series [6] deals with HT-29 cells. Kind of series: Western blot of intracellular AAT level, HT-29 cells. Conditions: HT-29 cell lysates; TPCK 50 μM, tamoxifen 10 μM; 1-3 hr treatment. The series is classed as cell-based, human. The procedure:
as §5

Series [7] concerns the target alpha-1-antitrypsin (AAT) (Homo sapiens, UniProt P01009). The series can be described thus: Interaction assay between AAT and TRFCK (SDS-PAGE fluorescence, Western blot). The format is binding. The procedure: 2 μg/μl AAT was incubated in vitro with 50 μM TRFCK in 37° c. for 30 min. After the incubation time the sample was subjected to 10% SDS-PAGE before being transferred to polyvinylidene difluoride (PVDF) membranes. At the end of the transfer the membrane was analyzed under UV lamp to track TRFCK fluorescence. The sample was then exposed to primary antibody anti-AAT. The secondary antibody was an HRP-conjugated anti-goat IgG (Jackson ImmunoResearch, USA) The membrane was then visualized using an ECL+plus Western Blotting Detection System.
AAT was incubated in vitro with 50 μM TRFCK (a fluorescence analog of TPCK, N-tosyl-L-phenylalanine chloromethyl ketone) in 37° C. for 30 min. Following incubation, the sample was applied to SDS-PAGE electrophoresis and transferred to PVDF membrane. Thereafter, the membrane was analyzed under UV lamp to track TRFCK fluorescence (FIG. 2, track 1). In addition, Western blot analysis was performed using the same membrane with an antibody against AAT (FIG. 2, track 2).

For a further series, the system named is trypsin. The series can be described thus: Trypsin activity assay (BAEE cleavage). As to conditions: substrate BAEE, absorbance at 253 nm. The format is biochemical. The procedure: (§6) Trypsin activity was determined according to Bergmeyer et. al. (Bergmeyer, H. U., Gawehn, K. and Grassl, M. (1974) in Methods of Enzymatic Analysis (Bergmeyer, H. U. ed.) Volume 1, 2nd ed., 516-517, Academic Press, New York, N.Y.). All assays were set up at a total volume of 1 ml by adding 65 μl trypsin at final amount of 1.625 μg, 0.23 mM Na-benzoyl-L-arginine ethyl ester (BAEE) as substrate in 63 mM sodium phosphate, in the presence or absence of 100 μM or 125 μM AAT with or without different concentration of TPCK. Trypsin activity was measured by the cleavage of the substrate BAEE by measuring absorbance at 253 nm.

Series [8] relates to HT-29 cells. Kind of series: Labeling of autophagic vacuoles with monodansylcadaverine (MDC), HT-29 cells. The series is classed as cell-based, human. Conditions: HT-29 cells treated with TPCK for 24 hours. The procedure:
HT-29 colorectal adenocarcinoma cells were cultured in RPMI 1640 (Invitrogene, 21875) supplemented with 10% FBS, 300 mg/l L-glutamine, 100 U/ml penicillin, 100 μg/ml streptomycin and 12.5 U/ml nystatin at 37° C. in 5% CO2.
as §2, §3, §4

The target in the next series is AAT (Homo sapiens, UniProt P01009). Kind of series: AAT inhibition of trypsin activity (BAEE cleavage). The series is classed as biochemical. As to conditions: TPCK added to AAT and trypsin; P<0.001 compared with control. How it is done:
as §6

The subject of series [9] is GFP-LC3 transfected MCF-7 cells. Kind of series: GFP-LC3 imaging of transfected MCF-7 cells. The format is cell-based, human. Conditions: TPCK 50 μM, 24 hours.
The subject of series [10] is alpha-1-antitrypsin (AAT).

alpha-1-antitrypsin (AAT) (Homo sapiens, UniProt P01009), sequence (P01009 25-418): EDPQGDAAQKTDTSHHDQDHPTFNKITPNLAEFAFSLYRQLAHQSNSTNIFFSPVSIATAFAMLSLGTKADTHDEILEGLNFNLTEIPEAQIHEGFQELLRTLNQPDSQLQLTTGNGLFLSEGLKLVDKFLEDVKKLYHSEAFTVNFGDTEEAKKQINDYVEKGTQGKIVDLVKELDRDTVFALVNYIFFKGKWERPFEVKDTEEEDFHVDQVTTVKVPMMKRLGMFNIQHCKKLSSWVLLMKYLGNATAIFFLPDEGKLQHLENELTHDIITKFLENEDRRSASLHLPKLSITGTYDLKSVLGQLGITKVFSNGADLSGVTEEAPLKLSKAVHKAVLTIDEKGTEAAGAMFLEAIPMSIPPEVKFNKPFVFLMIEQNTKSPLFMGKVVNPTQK
AAT, sequence (P01009 25-418): as above

As to `Cn1cnc(N)c2ncnc1-2` [3-Methyladenine], the “TPCK or tamoxifen-induced cell death on addition of autophagy inhibitor” value with MCF-7 cells [1] is listed as “reduced TPCK or tamoxifen-induced cell death”. Also, the “MDC uptake in cells treated with TPCK” value in the series with MCF-7 cells [2] was “suppressed MDC uptake”.

Regarding `CCOC(=O)[C@H]1O[C@@H]1C(=O)N[C@@H](CC(C)C)C(=O)NCCC(C)C` [E64d], the “TPCK or tamoxifen-induced cell death on addition of autophagy inhibitor” value in the series on MCF-7 cells [1] is “reduced TPCK or tamoxifen-induced cell death”. Besides, the “TPCK-induced accumulation of LC3-II” value with MCF-7 cells [3] and in the series with HT-29 cells [4] was “enhanced TPCK-induced accumulation of LC3-II” throughout.

With `CO/C1=C\C(C)=C\[C@@H](C)[C@@H](O)[C@@H](C)C/C(C)=C/C=C/[C@H](OC)[C@@H]([C@@H](C)[C@@H](O)[C@H](C)[C@@]2(O)C[C@@H](O)[C@H](C)[C@@H](C(C)C)O2)OC1=O` [bafilomycin A1], the “TPCK or tamoxifen-induced cell death on addition of autophagy inhibitor” value in the series on MCF-7 cells [1] was “reduced TPCK or tamoxifen-induced cell death”. The “MDC uptake in cells treated with TPCK” value in the series on MCF-7 cells [2] is listed as “suppressed MDC uptake”.

With `CC(C)CC(=O)N[C@H](C(=O)N[C@H](C(=O)N[C@@H](CC(C)C)[C@@H](O)CC(=O)N[C@@H](C)C(=O)N[C@@H](CC(C)C)[C@@H](O)CC(=O)O)C(C)C)C(C)C` [pepstatin A] (Isovaleryl-VV[Sta]A[Sta]-OH), the “TPCK or tamoxifen-induced cell death on addition of autophagy inhibitor” value in the series on MCF-7 cells [1] is listed as “reduced TPCK or tamoxifen-induced cell death”. Further, the “TPCK-induced accumulation of LC3-II” value with MCF-7 cells [3] and in the series with HT-29 cells [4] was “enhanced TPCK-induced accumulation of LC3-II” in each case.

In the case of `CC/C(=C(\c1ccccc1)c1ccc(OCCN(C)C)cc1)c1ccccc1` [tamoxifen], the “AAT level as compared to actin” value in the series on MCF-7 cells [5] and in the series with HT-29 cells [6] was “AAT level decreased” each time. Moreover, the “cell death by trypan blue staining” value in the series with MCF-7 cells [1] is “induced cell death”. For the same compound, the “competition with TRFCK on binding to AAT” value in series [7] is given as “not able to compete with TRFCK on binding to AAT”.

“AAT: plasma-derived protein of the serine proteinase inhibitor family; recombinant AAT added to cells”: the trypsin activity result in the series on trypsin is given as “inhibits trypsin activity”. In the series on MCF-7 cells [1] (AAT added prior to induction by TPCK (50 μM, 24 h) or tamoxifen (5 μM, 72 h)), the “cell death induced by TPCK and tamoxifen, determined by trypan blue staining” value is reported as “reduction”. Further, in the series with MCF-7 cells [2] (MCF-7 cells, AAT added prior to induction by TPCK (50 μM, 24 h) or tamoxifen (5 μM, 72 h)), the “autophagy induced by TPCK and tamoxifen, assessed by MDC staining” value is “reduction in autophagy”.

Regarding “N-tosyl-L-phenylalanine chloromethyl ketone [TPCK]”, the “AAT level as compared to actin” value in the series with MCF-7 cells [5] and with HT-29 cells [6] was “AAT level decreased” in each case. Moreover, the trypsin activity result with trypsin was “did not inhibit the trypsin activity”. For the same compound, the “MDC fluorescence intensity, number and size of MDC-labeled vesicles” value in the series on HT-29 cells [8] and with MCF-7 cells [2] (MCF-7 cells treated with TPCK for 24 hours) was “dose dependent increase in fluorescence intensity” each time. Also, the “cell death by trypan blue staining” value with MCF-7 cells [1] is given as “induced cell death”. In addition, the “LC3-II by western blot” value with MCF-7 cells [3] (TPCK 50 μM, different times) is “appearance of LC3-II”; in the series with HT-29 cells [4] (TPCK 50 μM, different times), “appearance of LC3-II”. Moreover, on AAT, the “AAT inhibition of trypsin activity” value is given as “the inhibition by AAT was abolished”. Besides, the “GFP-LC3 label (number of autophagosomes)” value in [9] was “accumulation of this label”.

As to trypsin, the “trypsin activity (cleavage of the substrate BAEE, absorbance at 253 nm)” value in series [10] was “AAT inhibits trypsin activity”.
